Test results taken from publication PMC8623179, “Design and Microwave Synthesis of New (5Z) 5-Arylidene-2-thioxo-1,3-thiazolinidin-4-one and (5Z) 2-Amino-5-arylidene-1,3-thiazol-4(5H)-one as New Inhibitors of Protein Kinase DYRK1A” (Pharmaceuticals, 2021).
Values joined by “and” are separate entries in the source; they are usually repeats but may differ in a detail not shown here. Equal entries are not always repeated. Where two headings read alike, the source gives them in different places.

Assays:
[1] = target: T1, DYRK1A (Rattus norvegicus, UniProt Q63470); assay: DYRK1A kinase assay; format: biochemical; conditions: Table 4; 15 μM ATP
T1 construct: GST; made in house; host or cells: Escherichia coli
Procedure: (§1) The twenty-two (5Z) 5-arylidene-2-thioxo-1,3-thiazolidin-4-ones 3a–v and the twenty-four (5Z) 2-amino-5-arylidene-1,3-thiazolidin-4(5H)-ones 5a–x were evaluated against four different and representative in vitro kinase assays DYRK1A (dual specificity tyrosine phosphorylation regulated kinase), CK1 δ/e (caseine kinase 1), CDK5/p25 (cyclin dependant kinase), and GSK3 α/β (glycogen synthase kinase 3) to evaluate their inhibition potency. […] All the compounds were initially tested at a 10 μM concentration.
After 30-min incubation at 30 °C, the reaction was stopped by harvesting, using a FilterMate harvester (Packard), onto P81 phospho-cellulose papers (GE Healthcare, Chicago, IL, USA) which were washed in 1% phosphoric acid. Scintillation fluid was added and the radioactivity measured in a Packard counter. Blank values were subtracted and activities calculated as pmoles of phosphate incorporated for the 30-min incubation. The activities were expressed in % of the maximal activity, i.e., in the absence of inhibitors. Controls were performed with appropriate dilutions of DMSO. […]

[2] = target: Casein kinase 1 (CK1δ/ε); assay: CK1δ/ε kinase assay; format: biochemical, porcine; conditions: Table 4; 15 μM ATP; read-out: IC50 CK1
Procedure: as §1
(§2) After 30-min incubation at 30 °C, the reaction was stopped by harvesting, using a FilterMate harvester (Packard), onto P81 phospho-cellulose papers (GE Healthcare, Chicago, IL, USA) which were washed in 1% phosphoric acid. Scintillation fluid was added and the radioactivity measured in a Packard counter. Blank values were subtracted and activities calculated as pmoles of phosphate incorporated for the 30-min incubation. The activities were expressed in % of the maximal activity, i.e., in the absence of inhibitors. Controls were performed with appropriate dilutions of DMSO.
Casein kinase 1 (CK1δ/ε) (porcine brain, native) was assayed with 0.67 µg of CKS peptide ([…]pSAYSITA), a CK1 specific substrate obtained from Millegen (Labege, France).

[3] = target: T2, CDK5/p25 (Homo sapiens, UniProt Q00535); assay: CDK5/p25 kinase assay; format: biochemical; conditions: Table 4; 15 μM ATP
T2 construct: made in house
T2 sequence (Q00535 whole entry): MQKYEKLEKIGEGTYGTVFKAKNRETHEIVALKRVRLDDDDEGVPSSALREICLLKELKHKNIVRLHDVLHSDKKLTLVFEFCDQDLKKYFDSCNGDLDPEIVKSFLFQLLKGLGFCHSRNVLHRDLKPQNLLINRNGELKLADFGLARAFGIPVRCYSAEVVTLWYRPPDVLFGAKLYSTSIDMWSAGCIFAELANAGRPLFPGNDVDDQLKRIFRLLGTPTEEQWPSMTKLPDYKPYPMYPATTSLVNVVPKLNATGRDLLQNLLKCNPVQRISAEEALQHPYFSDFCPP
T2 sequence (Q15078 99-307 partner limits assumed): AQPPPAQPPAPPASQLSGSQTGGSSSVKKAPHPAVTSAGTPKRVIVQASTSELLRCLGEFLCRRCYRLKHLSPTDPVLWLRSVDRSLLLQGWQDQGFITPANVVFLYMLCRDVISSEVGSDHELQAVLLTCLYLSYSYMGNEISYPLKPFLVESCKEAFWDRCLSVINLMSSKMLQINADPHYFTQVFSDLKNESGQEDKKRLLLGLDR
Procedure: as §1, §2
CDK5/p25 (human, recombinant) was prepared as previously described. […] ATP (3000 Ci/mmol; 10 mCi/mL) in a final volume of 30 μL. After 30-min incubation at 30 °C, 25 μL aliquots of supernatant were spotted onto 2.5 × 3 cm pieces of Whatman P81 phospho-cellulose paper, and, 20 s later, the filters were washed five times (for at least 5 min each time) in a solution of 10 mL phosphoric acid/litter of water. The wet filters were counted in the presence of 1 mL ACS (Amersham, UK) scintillation fluid.

[4] = target: GSK-3α/β; assay: GSK-3α/β kinase assay; format: biochemical, porcine; conditions: Table 4; 15 μM ATP; read-out: IC50 GSK3α/β
Procedure: as §1, §2
GSK-3α/β (porcine brain, native) was assayed, as described for CDK5/p25 but in Buffer A and using a GSK-3 specific substrate (GS-1: […]pEDEEE) (pS stands for phosphorylated serine). GS-1 was synthesized by Millegen (Labege, France).

[5] = system: Huh7 D12; assay: Cell survival assay, Huh7 D12; format: cell-based; conditions: Huh-7D12; 48 h exposure, nuclei count; read-out: Cell Lines IC50 Huh7 D12
Procedure: (§3) Skin diploid fibroblastic cells were provided by BIOPREDIC International Company (Rennes, France). […] Cells were grown according to ECACC recommendations. The toxicity test of the compounds on these cells was as follows: 2 × 10^3 cells for HCT-116 cells or 4 × 10^3 for the other cells were seeded in 96-multi-well plates in triplicate and left for 24 h for attachment, spreading and growing. Then, cells were exposed for 48 h to increasing concentrations of the compounds, ranging from […], in a final volume of 120 μL of culture medium. […] The IC50 were graphically determined.

[6] = system: Caco2; assay: Cell survival assay, Caco2; format: cell-based; conditions: Homo sapiens, Caco-2
Procedure: as §3

[7] = system: MDA-MB231; assay: Cell survival assay, MDA-MB231; format: cell-based; conditions: Homo sapiens, MDA-MB-231; 48 h exposure, nuclei count; read-out: Cell Lines IC50 MDA-MB231
Procedure: as §3

[8] = system: HCT116; assay: Cell survival assay, HCT116; format: cell-based; conditions: Homo sapiens, HCT-116
Procedure: as §3

[9] = system: PC3; assay: Cell survival assay, PC3; format: cell-based; conditions: Homo sapiens, PC-3; 48 h exposure, nuclei count; read-out: Cell Lines IC50 PC3
Procedure: as §3

[10] = system: NCI-H727; assay: Cell survival assay, NCI-H727; format: cell-based; conditions: Homo sapiens, 48 h exposure, nuclei count, read-out: Cell Lines IC50 NCI-H727
Procedure: as §3

[11] = system: Fibroblasts; assay: Cell survival assay, normal skin diploid fibroblasts; format: cell-based; conditions: Fibroblast; normal cells, 48 h exposure, nuclei count; read-out: Cell Lines IC50 Fibroblasts
Procedure: as §3

[12] = system: DYRK1A; conditions: reported; cited from earlier work
[13] = target: Casein kinase 1 (CK1δ/ε); conditions: read-out: IC50 CK1, positive control, cited from earlier work
[14] = system: GSK-3α/β; conditions: read-out: IC50 GSK3α/β, positive control, cited from earlier work
[15] = 48 h exposure, nuclei count, read-out: Cell Lines IC50 Caco2
[16] = 48 h exposure, nuclei count, read-out: Cell Lines IC50 HCT116
[17] = Table 5, same values as Table 4

Row | IC50 [1] | IC50 [2] | IC50 [3] | IC50 [4] | melting point | Structure (SMILES) | IC50 [5] | IC50 [6, 15] | IC50 ([6]; read-out: IC50 Caco2) | IC50 [7] | IC50 [8, 16] | IC50 ([8]; read-out: IC50 HCT 116) | IC50 [9] | IC50 [10] | IC50 [11] | IC50 [12] | IC50 ([13]; Table 4) | IC50 [13, 17] | IC50 ([14]; Table 4) | IC50 [14, 17]
1 | 0.09 µM | > 10 µM | > 10 µM | ≥ 10 µM | 250 to 252 °C | O=C1NC(=S)S/C1=C\c1ccc2c(c1)CCO2 [Compound 3g, (5Z)-5-(2,3-Dihydro-benzofuran-5-ylmethylene)-2-thioxo-1,3-thiazolidin-4-one] | > 25 µM | > 25 µM | 8 µM | > 25 µM | > 25 µM | 6 µM | > 25 µM | > 25 µM | > 25 µM | – | – | – | – | –
2 | – | – | – | – | – | COc1ccc2c(c1)[nH]c1c(C)nccc12 [Harmine] | – | – | – | – | – | – | – | – | – | […] | 1.5 µM | 1.5 µM | > 10 µM | > 10 µM
3 | 0.056 µM | > 10 µM | > 10 µM | ≤ 10 µM | 250 to 252 °C | O=C1NC(=S)S/C1=C\c1ccc2c(c1)OCCO2 [Compound 3f, (5Z)-5-(2,3-Dihydro-1,4-benzodioxin-6-ylmethylene)-2-thioxo-1,3-thiazolidin-4-one] | > 25 µM | > 25 µM | – | > 25 µM | > 25 µM | – | > 25 µM | > 25 µM | > 25 µM | – | – | – | – | –
4 | 1.4 µM | > 10 µM | > 10 µM | > 10 µM | 222 to 224 °C | COc1ccc(/C=C2\SC(=S)NC2=O)cc1O [Compound 3b, (5Z)-5-(3-Hydroxy-4-methoxybenzylidene)-2-thioxo-1,3-thiazolidin-4-one] | > 25 µM | > 25 µM | – | > 25 µM | > 25 µM | – | > 25 µM | > 25 µM | > 25 µM | – | – | – | – | –
